What was measured:
[1] = system: THP-1; assay: Anti-foam cell formation activity in human THP1 cells assessed as inhibition of esterified cholesterol accumulation after 24 hrs in presence of Japanese white rabbit high-cholesterol serum; assay type: functional, cell-based; conditions: THP-1, 24 h
[2] = target: T1, Acyl-CoA:cholesterol acyltransferase (Oryctolagus cuniculus, UniProt Q95214); assay: Inhibition of ACAT in Japanese White rabbit liver microsomes; parameters: species or system Microsome
T1 sequence (Q95214 whole entry): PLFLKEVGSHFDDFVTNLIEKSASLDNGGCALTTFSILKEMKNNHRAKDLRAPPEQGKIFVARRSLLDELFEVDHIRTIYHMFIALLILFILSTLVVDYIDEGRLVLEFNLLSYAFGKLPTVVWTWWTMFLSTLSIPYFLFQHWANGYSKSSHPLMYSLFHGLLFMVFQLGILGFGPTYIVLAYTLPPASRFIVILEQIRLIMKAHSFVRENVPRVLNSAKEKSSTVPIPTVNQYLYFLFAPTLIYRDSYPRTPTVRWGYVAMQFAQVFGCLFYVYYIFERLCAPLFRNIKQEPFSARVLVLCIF

[3] = Cmax in Sprague-Dawley rat at 10 mg/kg, po; assay type: ADME, organism-based; parameters: dose 10 mg/kg, route oral; conditions: in vivo
[4] = system: THP-1; assay: Anti-foam cell formation activity in human THP1 cells assessed as inhibition of esterified cholesterol accumulation after 24 hrs in presence of albumin; assay type: functional
[5] = Tmax in Sprague-Dawley rat at 10 mg/kg, po; assay type: ADME, organism-based; parameters: dose 10 mg/kg, route oral; conditions: in vivo
[6] = Protein binding in rat plasma assessed as total and protein free fraction concentration at 10 ug/ML after 150 mins by ultracentrifugation method; assay type: ADME, cell-free; conditions: read-out: PPB (converted)
[7] = system: Mus musculus; assay: Inhibition of hepatic cholesterol secretion in ICR mouse at 10 mg/kg, po after 3 hrs by enzymatic method; assay type: functional
[8] = Half life in Sprague-Dawley rat at 10 mg/kg, po; assay type: ADME, organism-based; parameters: dose 10 mg/kg, route oral; conditions: in vivo
[9] = AUC (0 to 24 hrs) in Sprague-Dawley rat at 10 mg/kg, po; assay type: ADME, organism-based; parameters: time < 24 hr, dose 10 mg/kg, route oral; conditions: plasma

Row | Structure (SMILES) | IC50 [1] | IC50 [2] | other results
1 | CCCCN1CCc2c(C)c(NS(C)(=O)=O)c(C)c(NC(=O)C(C)(C)CC)c21 | 45 nM | 53 nM | 
2 | COCCN1CCc2c(C)c(NS(C)(=O)=O)c(C)c(NC(=O)C(C)(C)C)c21 | 1600 nM | 270 nM | 
3 | Cc1c2c(c(NC(=O)C(C)(C)C)c(C)c1NS(C)(=O)=O)N(C)CC2 | 7500 nM | 8800 nM | 
4 | CCCCCCCCCCCN1CCc2c(C)c(CC(=O)O)c(C)c(NC(=O)C(C)(C)C)c21 | 850 nM | 960 nM | 
5 | CCCCCCCCN1CCc2c(C)c(CC(=O)O)c(C)c(NC(=O)C(C)(C)C)c21 [PACTIMIBE] |  |  | Cmax [3]: 800 ng/mL; fold change (FC) [4]: 10; Tmax [5]: 0.67 h; fraction unbound at […], 10 ug/mL [6]: 0.021; inhibition in vivo at 10 mg/kg [7]: 28%; half-life [8]: 7.37 h; AUC(0-t) at 24 h [9]: 2800 ng·h/mL
6 | CCN1CCc2c(C)c(NS(C)(=O)=O)c(C)c(NC(=O)C(C)(C)C)c21 |  |  | Cmax [3]: 2900 ng/mL; Tmax [5]: 0.5 h; half-life [8]: 2.59 h; AUC(0-t) at 24 h [9]: 10800 ng·h/mL
7 | CCCCCCCCN1CCc2c(C)c(CC(=O)O)c(C)c(NC(=O)C(C)(C)C)c21 | 2000 nM | 2300 nM | 
8 | CCCN1CCCc2c(C)c(NS(C)(=O)=O)c(C)c(NC(=O)C(C)(C)C)c21 | 290 nM | 130 nM | 
9 | CCOCCN1CCc2c(C)c(NS(C)(=O)=O)c(C)c(NC(=O)C(C)(C)C)c21 | 820 nM | 310 nM | 
10 | CCCCN1CCc2c(C)cc(C)c(NC(=O)C(C)(C)C)c21 | 1100 nM | 220 nM | 
11 | CCCCCCCCN1CCc2c(C)cc(C)c(NC(=O)C(C)(C)C)c21 | 290 nM |  | 
12 | CCCCCCCCCCN1CCc2c(C)c(CC(=O)O)c(C)c(NC(=O)C(C)(C)C)c21 | 980 nM | 910 nM | 

Reference: ChEMBL document CHEMBL1153475, “Novel indoline-based acyl-CoA: cholesterol acyltransferase inhibitor: Effects of introducing a methanesulfonamide group on physicochemical properties and biological activities” (Bioorg Med Chem, 2009)
